Data: US7138361B2, “Herbicidal heterocycles” (E. I. du Pont de Nemours and Company, priority 2000, dated 2006)

Key:
Assay type in all cases: in vivo
[1] = system: Nightshade; assay: Test C preemergence; settings: Rate 250 g/ha, visual evaluation after 12 to 14 days
[2] = system: velvetleaf (Abutilon theophrasti); assay: Test B postemergence; settings: 13 to 15 days
In short: (§1)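 Seeds were planted and sprayed preemergence with test chemical in a non-phytotoxic solvent mixture containing surfactant; postemergence plants (2 to 18 cm, 1- to 4-leaf stage) received the same formulation. Greenhouse hold 13 to 15 days, then visual rating versus untreated controls on a 0–100 scale (0 no effect, 100 complete control).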

[3] = system: crabgrass (Digitaria sanguinalis); assay: Test B postemergence; settings: 13 to 15 days
In short: as §1

[4] = system: pigweed (Amaranthus retroflexus); assay: Test B postemergence; settings: 13 to 15 days
In short: as §1

[5] = system: Surinam grass (Brachiaria decumbens); assay: Test B postemergence; settings: 13 to 15 days
In short: as §1

[6] = system: blackgrass (Alopecurus myosuroides); assay: Test B postemergence; settings: 13 to 15 days
In short: as §1

[7] = system: wild oat (Avena fatua); assay: Test B postemergence; settings: 13 to 15 days
In short: as §1

[8] = system: morning glory (Ipomoea hederacea); assay: Test B postemergence; settings: 13 to 15 days
In short: as §1

[9] = system: wheat (Triticum aestivum); assay: Test B postemergence; settings: 13 to 15 days
In short: as §1

[10] = system: cocklebur (Xanthium strumarium); assay: Test B postemergence; settings: 13 to 15 days
In short: as §1

[11] = system: barnyardgrass (Echinochloa crus-galli); assay: Test B postemergence; settings: 13 to 15 days
In short: as §1

[12] = system: corn (Zea mays); assay: Test B postemergence; settings: 13 to 15 days
In short: as §1

[13] = system: giant foxtail (Setaria faberii); assay: Test B postemergence; settings: 13 to 15 days
In short: as §1

[14] = system: lambsquarters (Chenopodium album); assay: Test B postemergence; settings: 13 to 15 days
In short: as §1

[15] = system: rice (Oryza saliva); assay: Test C flooded paddy test; settings: for Rice plant response rating: Flooded Paddy, scale 0 to 100, 0 no effect, 100 complete control; for Plant response rating, Rice: flooded paddy test, scale 0 to 100 (0 no effect, 100 complete control)
In short: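 Greenhouse-maintained for 12 to 14 days after treatment, the paddy plants (2-leaf stage at application) were scored visually against controls. A score of 0 denotes no effect and a score of 100 denotes complete control.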

[16] = system: velvetleaf (Abutilon theophrasti); assay: Test B preemergence; settings: Preemergence, Rate 500 g/ha; scale 0 to 100, 0 no effect, 100 complete control
In short: as §1

[17] = system: crabgrass (Digitaria sanguinalis); assay: Test B preemergence; settings: scale 0 to 100, 0 no effect, 100 complete control
In short: as §1

[18] = system: pigweed (Amaranthus retroflexus); assay: Test B preemergence; settings: Preemergence, Rate 500 g/ha; scale 0 to 100, 0 no effect, 100 complete control
In short: as §1

[19] = system: rice (Oryza saliva); assay: Test B preemergence; settings: Preemergence, Rate 500 g/ha; scale 0 to 100, 0 no effect, 100 complete control
In short: as §1

[20] = system: Surinam grass (Brachiaria decumbens); assay: Test B preemergence; settings: scale 0 to 100, 0 no effect, 100 complete control
In short: as §1

[21] = system: morning glory (Ipomoea hederacea); assay: Test B preemergence; settings: Preemergence, Rate 500 g/ha; scale 0 to 100, 0 no effect, 100 complete control
In short: as §1

[22] = system: cocklebur (Xanthium strumarium); assay: Test B preemergence; settings: scale 0 to 100, 0 no effect, 100 complete control
In short: as §1

[23] = system: barnyardgrass (Echinochloa crus-galli); assay: Test B preemergence; settings: scale 0 to 100, 0 no effect, 100 complete control
In short: as §1

[24] = system: corn (Zea mays); assay: Test B preemergence; settings: scale 0 to 100, 0 no effect, 100 complete control
In short: as §1

[25] = system: giant foxtail (Setaria faberii); assay: Test B preemergence; settings: scale 0 to 100, 0 no effect, 100 complete control
In short: as §1

[26] = system: lambsquarters (Chenopodium album); assay: Test B preemergence; settings: scale 0 to 100, 0 no effect, 100 complete control
In short: as §1

[27] = system: Sunflower; assay: Test C preemergence; settings: Rate 125 g/ha, scale 0 to 100, 0 no effect, 100 complete control
[28] = Rate 125 g/ha, scale 0 (no effect) to 100 (complete control)
[29] = Rate 500 g/ha, scale 0 to 100, 0 is no effect, 100 is complete control

CC(C)c1ccn(C2SCN(c3cccc(OC(F)(F)F)c3)C2=O)n1 (centres unmarked) [Compound 31]
30: Plant response rating, Morningglory [8, 29] | Plant response rating, Rice ([15]; Rate 62 g/ha) | Plant response rating, Surinam grass ([20]; preemergence, Rate 125 g/ha) | Plant response rating, Foxtail, Giant ([25]; preemergence, Rate 125 g/ha) | Plant response rating, Sunflower [27]
10: Plant response rating, Morningglory [8, 28]
60: Plant response rating, Pigweed [4, 29] | Plant response rating, Cocklebur [10, 28] | Plant response rating, Rice ([15]; Rate 125 g/ha)
20: Plant response rating, Pigweed [4, 28] | Plant response rating, Foxtail, Giant [13, 29]
0: Plant response rating, Velvetleaf [2, 28] | Plant response rating, Velvetleaf [2, 29] | Plant response rating, Crabgrass [3, 28] | Plant response rating, Surinam grass [5, 28] | Plant response rating, Surinam grass [5, 29] | Plant response rating, Blackgrass [6, 28] | Plant response rating, Blackgrass [6, 29] | Plant response rating, Wild Oat [7, 28] | Plant response rating, Wild Oat [7, 29] | Plant response rating, Wheat [9, 28] | Plant response rating, Wheat [9, 29] | Plant response rating, Corn [12, 28] | Plant response rating, Corn [12, 29] | Plant response rating, Foxtail, Giant [13, 28] | Plant response rating, Velvetleaf [16] | Plant response rating, Rice [19] | Plant response rating, Morningglory [21] | Plant response rating, Cocklebur ([22]; Preemergence, Rate 500 g/ha) | Plant response rating, Cocklebur ([22]; preemergence, Rate 125 g/ha) | Plant response rating, Corn ([24]; Preemergence, Rate 500 g/ha) | Plant response rating, Corn ([24]; preemergence, Rate 125 g/ha)
80: Plant response rating, Lambsquarters [14, 29]
70: Plant response rating, Cocklebur [10, 29] | Plant response rating, Lambsquarters [14, 28] | Plant response rating, Surinam grass ([20]; Preemergence, Rate 500 g/ha)
90: Rice plant response rating ([15]; Rate 250 g/ha) | Rice plant response rating ([15]; Rate 500 g/ha) | Plant response rating, Foxtail, Giant ([25]; Preemergence, Rate 500 g/ha)
40: Plant response rating, Crabgrass [3, 29]
100: Plant response rating (0 to 100), Nightshade [1] | Plant response rating, Barnyardgrass [11, 28] | Plant response rating, Barnyardgrass [11, 29] | Plant response rating, Crabgrass ([17]; Preemergence, Rate 500 g/ha) | Plant response rating, Crabgrass ([17]; preemergence, Rate 125 g/ha) | Plant response rating, Pigweed [18] | Plant response rating, Barnyardgrass ([23]; Preemergence, Rate 500 g/ha) | Plant response rating, Barnyardgrass ([23]; preemergence, Rate 125 g/ha) | Plant response rating, Lambsquarters ([26]; Preemergence, Rate 500 g/ha) | Plant response rating, Lambsquarters ([26]; preemergence, Rate 125 g/ha)

CCC(C)c1ccn(C2SCN(c3cccc(OC(F)(F)F)c3)C2=O)n1 (centres unmarked) [Compound 32]
20: Plant response rating, Morningglory [8, 28] | Plant response rating, Morningglory [8, 29]
40: Plant response rating, Pigweed [4, 28] | Plant response rating, Surinam grass ([20]; preemergence, Rate 125 g/ha)
10: Plant response rating, Surinam grass [5, 29]
100: Plant response rating, Crabgrass [3, 29] | Rice plant response rating ([15]; Rate 250 g/ha) | Rice plant response rating ([15]; Rate 500 g/ha) | Plant response rating, Crabgrass ([17]; Preemergence, Rate 500 g/ha) | Plant response rating, Pigweed [18] | Plant response rating, Barnyardgrass ([23]; Preemergence, Rate 500 g/ha) | Plant response rating, Foxtail, Giant ([25]; Preemergence, Rate 500 g/ha) | Plant response rating, Lambsquarters ([26]; Preemergence, Rate 500 g/ha) | Plant response rating, Lambsquarters ([26]; preemergence, Rate 125 g/ha)
80: Plant response rating, Crabgrass [3, 28] | Plant response rating, Barnyardgrass [11, 28] | Plant response rating, Lambsquarters [14, 28] | Plant response rating, Barnyardgrass ([23]; preemergence, Rate 125 g/ha)
60: Plant response rating, Pigweed [4, 29] | Plant response rating, Cocklebur [10, 28] | Plant response rating, Cocklebur [10, 29] | Plant response rating, Foxtail, Giant [13, 29] | Plant response rating, Crabgrass ([17]; preemergence, Rate 125 g/ha) | Plant response rating, Surinam grass ([20]; Preemergence, Rate 500 g/ha)
70: Plant response rating, Foxtail, Giant ([25]; preemergence, Rate 125 g/ha)
30: Plant response rating, Rice ([15]; Rate 125 g/ha)
0: Plant response rating, Velvetleaf [2, 28] | Plant response rating, Velvetleaf [2, 29] | Plant response rating, Surinam grass [5, 28] | Plant response rating, Blackgrass [6, 28] | Plant response rating, Blackgrass [6, 29] | Plant response rating, Wild Oat [7, 28] | Plant response rating, Wild Oat [7, 29] | Plant response rating, Wheat [9, 28] | Plant response rating, Wheat [9, 29] | Plant response rating, Corn [12, 28] | Plant response rating, Corn [12, 29] | Plant response rating, Foxtail, Giant [13, 28] | Plant response rating, Rice ([15]; Rate 62 g/ha) | Plant response rating, Velvetleaf [16] | Plant response rating, Rice [19] | Plant response rating, Morningglory [21] | Plant response rating, Cocklebur ([22]; Preemergence, Rate 500 g/ha) | Plant response rating, Corn ([24]; Preemergence, Rate 500 g/ha) | Plant response rating, Corn ([24]; preemergence, Rate 125 g/ha) | Plant response rating, Sunflower [27]
90: Plant response rating (0 to 100), Nightshade [1] | Plant response rating, Barnyardgrass [11, 29] | Plant response rating, Lambsquarters [14, 29]

CC(C)(C)c1ccn(C2SCN(c3cccc(OC(F)F)c3)C2=O)n1 (centres unmarked) [Compound 36]
0: Plant response rating, Velvetleaf [2, 28] | Plant response rating, Surinam grass [5, 28] | Plant response rating, Blackgrass [6, 28] | Plant response rating, Blackgrass [6, 29] | Plant response rating, Wild Oat [7, 28] | Plant response rating, Wheat [9, 28] | Plant response rating, Wheat [9, 29] | Plant response rating, Corn [12, 28] | Plant response rating, Velvetleaf [16] | Plant response rating, Morningglory [21] | Plant response rating, Cocklebur ([22]; Preemergence, Rate 500 g/ha) | Plant response rating, Cocklebur ([22]; preemergence, Rate 125 g/ha) | Plant response rating, Corn ([24]; Preemergence, Rate 500 g/ha) | Plant response rating, Corn ([24]; preemergence, Rate 125 g/ha) | Plant response rating, Sunflower [27]
80: Plant response rating, Crabgrass [3, 28] | Plant response rating, Rice ([15]; Rate 125 g/ha)
30: Plant response rating, Morningglory [8, 28] | Plant response rating, Rice ([15]; Rate 62 g/ha)
20: Plant response rating, Wild Oat [7, 29] | Plant response rating, Cocklebur [10, 28]
100: Plant response rating, Crabgrass [3, 29] | Plant response rating, Pigweed [4, 29] | Plant response rating, Barnyardgrass [11, 29] | Plant response rating, Lambsquarters [14, 29] | Plant response rating, Crabgrass ([17]; Preemergence, Rate 500 g/ha) | Plant response rating, Crabgrass ([17]; preemergence, Rate 125 g/ha) | Plant response rating, Pigweed [18] | Plant response rating, Surinam grass ([20]; Preemergence, Rate 500 g/ha) | Plant response rating, Barnyardgrass ([23]; Preemergence, Rate 500 g/ha) | Plant response rating, Barnyardgrass ([23]; preemergence, Rate 125 g/ha) | Plant response rating, Foxtail, Giant ([25]; Preemergence, Rate 500 g/ha) | Plant response rating, Foxtail, Giant ([25]; preemergence, Rate 125 g/ha) | Plant response rating, Lambsquarters ([26]; Preemergence, Rate 500 g/ha) | Plant response rating, Lambsquarters ([26]; preemergence, Rate 125 g/ha)
60: Plant response rating, Velvetleaf [2, 29] | Plant response rating, Cocklebur [10, 29] | Plant response rating, Foxtail, Giant [13, 28]
70: Plant response rating, Corn [12, 29] | Plant response rating, Surinam grass ([20]; preemergence, Rate 125 g/ha)
50: Plant response rating, Surinam grass [5, 29]
90: Plant response rating (0 to 100), Nightshade [1] | Plant response rating, Pigweed [4, 28] | Plant response rating, Barnyardgrass [11, 28] | Plant response rating, Foxtail, Giant [13, 29] | Plant response rating, Lambsquarters [14, 28] | Rice plant response rating ([15]; Rate 250 g/ha) | Rice plant response rating ([15]; Rate 500 g/ha) | Plant response rating, Rice [19]
40: Plant response rating, Morningglory [8, 29]
